# Test: recombinant UMI read abundance after kanamycin selection (control-corrected) (log10(CPM+1)); higher = more efficient recombination; extreme values may be limits of the assay; sequences stand for … in AGTGCAGAGAAAATCGGCCAGTTTTCTCTGCCTGCAGTCCGCATGCCGTGGGACCCCTTGGGTTCTAACCTGTTGCCTAGATTTATGCAGCGGACTGCCTTTCTCCCAAAGTGATAAACCGG…AGGTTGGTTTCACT; site = the 11-nt donor
# How it was run: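 Under IPTG (0.07 mM) plus kanamycin, or without selection, Escherichia coli carrying a UMI-tagged donor and donor-binding-loop pair library and a target plasmid for the IS621 bridge recombinase were plated in two replicates. Recombinant UMIs were PCR-amplified across the donor–target junction and sequenced. Counts were converted to CPM, averaged over replicates, scaled by control-derived factors and reported as log10(CPM+1).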
# 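Also: IS621 bridge recombinase in Escherichia coli cells against a fixed T5 target plasmid.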
row,Sequence,recombinant UMI read abundance (log10)
1,GTGGAGGCATGGACCGGTTTTCCCGGTAATCCGTATTTGTG (site GTGTAGGCTCA),1.06
2,GTGGAGGCATGGACCGGTTTTCCCGGTAATCCGTATTTGTG (site GTTGAGGCTCA),0.792
3,GTGGAGGCATGGACCGGTTTTCCCGGTAATCCGTATTTGTG (site TTGGAGGCTCA),0.821
4,GTGGATGCATGGACCGGTTTTCCCGGTAATCCGTATTTGTG (site GTGGAAGCTCA),1.82
5,GTGGATGCATGGACCGGTTTTCCCGGTAATCCGTATTTGTG (site GTGGACGCTCA),0.837
6,GTGGATGCATGGACCGGTTTTCCCGGTAATCCGTATTTGTG (site GTGGAGGCTCA),0.696
7,GTGGATGCATGGACCGGTTTTCCCGGTAATCCGTATTTGTG (site GTGGATGCTCA),1.67
8,GTGGCACCATGGACCGGTTTTCCCGGTAATCCGTATTTGAG (site GTGGCACCTCT),0.0198
9,GTGGCACCATGGACCGGTTTTCCCGGTAATCCGTATTTGCA (site GAGGCACCTTG),0
10,GTGGCACCATGGACCGGTTTTCCCGGTAATCCGTATTTGCA (site GCGGCACCTTG),0
11,GTGGCACCATGGACCGGTTTTCCCGGTAATCCGTATTTGCA (site GGGGCACCTTG),0
12,GTGGCACCATGGACCGGTTTTCCCGGTAATCCGTATTTGCA (site GTGGCACCTTG),0
13,GTGGCGGCATGGACCGGTTTTCCCGGTAATCCGTATTTGTG (site GTGGAGGCTCA),0.154
14,GTGGCGGCATGGACCGGTTTTCCCGGTAATCCGTATTTGTG (site GTGGCGGCTCA),0.696
15,GTGGCGGCATGGACCGGTTTTCCCGGTAATCCGTATTTGTG (site GTGGGGGCTCA),0.0119
16,GTGGCGGCATGGACCGGTTTTCCCGGTAATCCGTATTTGTG (site GTGGTGGCTCA),0.00615
17,GTGGCTGCATGGACCGGTTTTCCCGGTAATCCGTATTTGAT (site GTGGCTGCTAT),2.18
18,GTGTAGGCATGGACCGGTTTTCCCGGTAATCCGTATTTGGC (site ATGTAGGCTGC),1.98
19,GTGTAGGCATGGACCGGTTTTCCCGGTAATCCGTATTTGGC (site CTGTAGGCTGC),1.99
20,GTGTAGGCATGGACCGGTTTTCCCGGTAATCCGTATTTGGC (site GTGTAGGCTGC),2.67
21,GTGTAGGCATGGACCGGTTTTCCCGGTAATCCGTATTTGGC (site TTGTAGGCTGC),2.28
22,GTGTAGGCATGGACCGGTTTTCCCGGTAATCCGTATTTGTG (site GTGAAGGCTCA),0.891
23,GTGTAGGCATGGACCGGTTTTCCCGGTAATCCGTATTTGTG (site GTGCAGGCTCA),1.36
24,GTGTAGGCATGGACCGGTTTTCCCGGTAATCCGTATTTGTG (site GTGGAGGCTCA),0.00345
25,GTGTAGGCATGGACCGGTTTTCCCGGTAATCCGTATTTGTG (site GTGTAGGCTCA),1.75

row,Sequence,recombinant UMI read abundance (log10)
1,GTGTTTCCATGGACCGGTTTTCCCGGTAATCCGTATTTGTG (site GTGTTTCCTCA),0.368
2,GTTAGAGCATGGACCGGTTTTCCCGGTAATCCGTATTTGCA (site GTTAGAGCTTG),3.02
3,GTTAGAGCATGGACCGGTTTTCCCGGTAATCCGTATTTGCA (site GTTCGAGCTTG),1.01
4,GTTAGAGCATGGACCGGTTTTCCCGGTAATCCGTATTTGCA (site GTTGGAGCTTG),1.6
5,GTTAGAGCATGGACCGGTTTTCCCGGTAATCCGTATTTGCA (site GTTTGAGCTTG),1.08
6,GTTAGAGCATGGACCGGTTTTCCCGGTAATCCGTATTTGGG (site GTTAGAGCTCC),0.089
7,GTTAGCACATGGACCGGTTTTCCCGGTAATCCGTATTTGGC (site GTTAGAACTGC),0
8,GTTAGCACATGGACCGGTTTTCCCGGTAATCCGTATTTGGC (site GTTAGCACTGC),2.11
9,GTTAGCACATGGACCGGTTTTCCCGGTAATCCGTATTTGGC (site GTTAGGACTGC),0.0382
10,GTTAGCACATGGACCGGTTTTCCCGGTAATCCGTATTTGGC (site GTTAGTACTGC),0
11,GTTAGTCCATGGACCGGTTTTCCCGGTAATCCGTATTTGAA (site GTTAGTCCTTT),0.171
12,GTTCAAGCATGGACCGGTTTTCCCGGTAATCCGTATTTGTC (site GTTCAAGCTGA),1.84
13,GTTCATGCATGGACCGGTTTTCCCGGTAATCCGTATTTGGT (site GTACATGCTAC),0.216
14,GTTCATGCATGGACCGGTTTTCCCGGTAATCCGTATTTGGT (site GTCCATGCTAC),0.258
15,GTTCATGCATGGACCGGTTTTCCCGGTAATCCGTATTTGGT (site GTGCATGCTAC),0.477
16,GTTCATGCATGGACCGGTTTTCCCGGTAATCCGTATTTGGT (site GTTCATGCTAC),0.717
17,GTTCCCTCATGGACCGGTTTTCCCGGTAATCCGTATTTGTA (site GTTCCCTCTTA),2.5
18,GTTCCGACATGGACCGGTTTTCCCGGTAATCCGTATTTGTG (site GTTCCGACTCA),0.0473
19,GTTCCTTCATGGACCGGTTTTCCCGGTAATCCGTATTTGAC (site GTTCCTTCTGT),0.671
20,GTTCGAACATGGACCGGTTTTCCCGGTAATCCGTATTTGGT (site GTTCGAACTAC),0.225
21,GTTCGAGCATGGACCGGTTTTCCCGGTAATCCGTATTTGCG (site GTTCGAGCTAG),0
22,GTTCGAGCATGGACCGGTTTTCCCGGTAATCCGTATTTGCG (site GTTCGAGCTCG),1.39
23,GTTCGAGCATGGACCGGTTTTCCCGGTAATCCGTATTTGCG (site GTTCGAGCTGG),0.838
24,GTTCGAGCATGGACCGGTTTTCCCGGTAATCCGTATTTGCG (site GTTCGAGCTTG),1.23
25,GTTCGAGCATGGACCGGTTTTCCCGGTAATCCGTATTTGTA (site GTTCGAGCTTA),1.9

row,Sequence,recombinant UMI read abundance (log10)
1,GTTCGAGCATGGACCGGTTTTCCCGGTAATCCGTATTTGTA (site GTTCGAGCTTC),0.014
2,GTTCGAGCATGGACCGGTTTTCCCGGTAATCCGTATTTGTA (site GTTCGAGCTTG),0.543
3,GTTCGAGCATGGACCGGTTTTCCCGGTAATCCGTATTTGTA (site GTTCGAGCTTT),0.569
4,GTTCGGACATGGACCGGTTTTCCCGGTAATCCGTATTTGTG (site GTTCGGACTCA),0.706
5,GTTCTACCATGGACCGGTTTTCCCGGTAATCCGTATTTGCC (site GTTCTACCTGG),0
6,GTTCTAGCATGGACCGGTTTTCCCGGTAATCCGTATTTGCA (site GTTCAAGCTTG),0
7,GTTCTAGCATGGACCGGTTTTCCCGGTAATCCGTATTTGCA (site GTTCCAGCTTG),0.0113
8,GTTCTAGCATGGACCGGTTTTCCCGGTAATCCGTATTTGCA (site GTTCGAGCTTG),0
9,GTTCTAGCATGGACCGGTTTTCCCGGTAATCCGTATTTGCA (site GTTCTAGCTTG),0.902
10,GTTCTCTCATGGACCGGTTTTCCCGGTAATCCGTATTTGTA (site ATTCTCTCTTA),0.848
11,GTTCTCTCATGGACCGGTTTTCCCGGTAATCCGTATTTGTA (site CTTCTCTCTTA),0.989
12,GTTCTCTCATGGACCGGTTTTCCCGGTAATCCGTATTTGTA (site GTTCTCTCTTA),1.83
13,GTTCTCTCATGGACCGGTTTTCCCGGTAATCCGTATTTGTA (site TTTCTCTCTTA),0.822
14,GTTGAAGCATGGACCGGTTTTCCCGGTAATCCGTATTTGAG (site GTTGAAGCTCT),1.61
15,GTTGAGTCATGGACCGGTTTTCCCGGTAATCCGTATTTGAC (site GTTGAGTCTGT),2.71
16,GTTGGCGCATGGACCGGTTTTCCCGGTAATCCGTATTTGTG (site GTTGGCGCTCA),0.74
17,GTTGGGCCATGGACCGGTTTTCCCGGTAATCCGTATTTGAT (site GTTGGGCCTAT),0.00591
18,GTTGTTCCATGGACCGGTTTTCCCGGTAATCCGTATTTGGT (site ATTGTTCCTAC),0.0121
19,GTTGTTCCATGGACCGGTTTTCCCGGTAATCCGTATTTGGT (site CTTGTTCCTAC),0.00343
20,GTTGTTCCATGGACCGGTTTTCCCGGTAATCCGTATTTGGT (site GATGTTCCTAC),0.0185
21,GTTGTTCCATGGACCGGTTTTCCCGGTAATCCGTATTTGGT (site GCTGTTCCTAC),0.00506
22,GTTGTTCCATGGACCGGTTTTCCCGGTAATCCGTATTTGGT (site GGTGTTCCTAC),0.0704
23,GTTGTTCCATGGACCGGTTTTCCCGGTAATCCGTATTTGGT (site GTAGTTCCTAC),0.00238
24,GTTGTTCCATGGACCGGTTTTCCCGGTAATCCGTATTTGGT (site GTCGTTCCTAC),0.005
25,GTTGTTCCATGGACCGGTTTTCCCGGTAATCCGTATTTGGT (site GTGGTTCCTAC),0.508

# From the supplement of paper PMC11208160
